Reference: paper PMC9603521, “WYBQ-4: a New Bactericidal Agent against Methicillin-Resistant Staphylococcus aureus” (Microbiology Spectrum, 2022)
≈ marks a conversion by molar mass, not a printed value. Read-outs that look alike come from different tables or passages of the source.

What was measured:
[1] = test system: rabbit red blood cells; test: Hemolytic activity; assay type: cell-based; conditions: 0 to 512 μg/mL
[2] = target: PBP2a (Staphylococcus aureus, UniProt P07944); test: PBP2a acylation kinetics, nitrocefin competition assay; assay type: biochemical, MRSA
PBP2a, sequence (P07944 whole entry): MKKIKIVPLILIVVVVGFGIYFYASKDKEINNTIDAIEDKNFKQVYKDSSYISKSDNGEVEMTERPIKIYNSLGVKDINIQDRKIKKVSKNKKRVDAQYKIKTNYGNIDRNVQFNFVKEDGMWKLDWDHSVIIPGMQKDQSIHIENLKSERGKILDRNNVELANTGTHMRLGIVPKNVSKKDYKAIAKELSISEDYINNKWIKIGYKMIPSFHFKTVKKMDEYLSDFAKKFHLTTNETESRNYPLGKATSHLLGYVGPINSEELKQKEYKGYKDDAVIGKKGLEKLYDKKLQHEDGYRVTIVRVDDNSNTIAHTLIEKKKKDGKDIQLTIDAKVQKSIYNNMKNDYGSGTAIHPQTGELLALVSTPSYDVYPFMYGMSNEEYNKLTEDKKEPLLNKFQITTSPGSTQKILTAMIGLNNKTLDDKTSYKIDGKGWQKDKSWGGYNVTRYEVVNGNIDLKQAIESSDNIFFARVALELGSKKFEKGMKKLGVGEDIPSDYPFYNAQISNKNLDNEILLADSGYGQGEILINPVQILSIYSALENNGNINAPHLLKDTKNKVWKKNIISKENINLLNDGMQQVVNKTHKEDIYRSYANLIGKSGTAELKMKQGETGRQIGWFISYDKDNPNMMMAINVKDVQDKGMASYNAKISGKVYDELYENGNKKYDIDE
Description: Please refer to the supplemental material for the kinetic parameters of the interaction between WYBQ-4 and PBP2a and the determination of the rate of diacylation.
Supplementary Method. 1 Determination of the Kinetic Parameters for Interactions of […]
Determination of the kinetic parameters for interactions of WYBQ-4 with PBP2a The kinetic parameters of the interaction of WYBQ-4 with PBP2a were determined as previously described (1). The kinetics of the reaction between PBP2a of MRSA with WYBQ-4 was studied in homogeneous aqueous solution at 37℃ in 25 mM Hepes buffer, pH 7.0, containing 1 M NaCl and the inhibition of PBPs by β-lactams follows this kinetic scheme. […]
In this minimal scheme, E represents PBP2a, EI is the noncovalent preacylation complex, E-I is the covalent acyl-enzyme species, and P denotes the product of E-I hydrolysis and restoration of […]
The typical reactions of β-lactam could be monitored through competition with a chromophoric β-lactam, nitrocefin, or directly in certain cases by fluorescence intensity of protein. In this study, it is proposed to determine the secondary rate constants (k2/Ks) of WYBQ-4 by nitrocefin competition assay. The reaction was conducted in the above buffer, and the reaction system contained PBP2a (2.5 μM) and different concentrations of nitrocefin (20-120 μM). The reaction was carried out in a UV spectrophotometer (PERSEE T600, China) and the change in absorbance at 500 nm was […]
Apparent first-order rate constants for acylation by nitrocefin were determined by fitting the change in absorbance with time to eqn. (1):
A = A0 + ∆εn E0[(1 − exp (−kn∗ t)] + k0N0∆εn Ε0t (1) where A0 is the initial absorbance at 500 nm, ∆εn the change in molar absorption coefficient on nitrocefin hydrolysis (15900 M-1cm-1), E0 the initial enzyme concentration, N0 the initial nitrocefin concentration, kn* the (burst) pseudo-first-order rate constant for acylation of PBP2a by nitrocefin, and k0 the (line) second-order rate constant of a non-specific hydrolysis of nitrocefin in the presence of PBP2a. The second-order rate constants (kn) for acylation were calculated by fitting a plot of the apparent first-order rate constants (kn*) against the concentration of nitrocefin using a linear least-squares method.
Subsequently, nitrocefin (100 μM) was used as a reporter molecule to determine the apparent first-order rate constants for acylation of WYBQ-4 at different concentrations (0-500 μM) in competition assays. In this case, the change in absorbance at 500 nm with time was fitted to eqn.
Α = A + ∆ε E (k∗ ∕ (k∗ + k∗)(1 − exp (−(k∗ + k∗)t)) + k N ∆ε Ε t (2) […]

[3] = test system: Enterococcus faecium; test: MIC by broth microdilution (CLSI); assay type: cell-based; conditions: compared to that against Staphylococcus
[4] = test system: A549 cells; test: Cytotoxicity assay (cell viability); assay type: cell-based
Description: (§1) Cytotoxicity assay. The cytotoxicity of WYBQ-4 against A549, HEK-293T, or HepG2 cells was evaluated with a cell counting kit-8 kit (CCK8; US Everbright, Suzhou, China) according to the manufacturer’s instructions ([41]). In brief, 5 × 10^4 cells were seeded in 96-well plates containing prewarmed medium (100 μL) and incubated for 24 h at 37°C in 5% CO2. Then, various concentrations of WYBQ-4 (0 to 512 μg/mL) were added and further incubated for 24 h. Afterward, the cells were incubated with 100 μL of medium with 10 μL of CCK8 solution (Sigma-Aldrich) for 4 h. Finally, a solution of the purple precipitate dissolved in dimethyl sulfoxide (DMSO) was added to a 96-well plate, and the absorbance was measured at 450 nm.

[5] = test system: HEK-293T cells; test: Cytotoxicity assay (cell viability); assay type: cell-based
Description: as §1

[6] = test system: HepG2 cells; test: Cytotoxicity assay (cell viability); assay type: cell-based
Description: as §1

[7] = test system: clinical isolate SA1B2B; test: Mouse systemic infection model; assay type: in vivo, mice; conditions: different doses
Description: (§2) The S. aureus-induced systemic infection model of mice (6-week-old female C57BL/6J mice) was established as previously described ([46]). […] The mice infected in the same way were treated with physiological saline as an infection control group. The mock group was not infected with S. aureus, and the 7-day mortality of the mice in each group was calculated.

[8] = test system: clinical isolate SA28; test: Mouse systemic infection model; assay type: in vivo, mice; conditions: different doses
Description: as §2

[9] = test system: MRSA USA300; test: Mouse systemic infection model; assay type: in vivo, mice; conditions: USA300 5 × 10^7 CFU, 150 mg/kg, tail intravenous injection at 0 and 3 h, 7-day
Description: as §2

[10] = test system: methicillin-resistant Staphylococcus epidermidis (MRSE) 12228; test: MIC by broth microdilution (CLSI); assay type: cell-based

Compound: C#CCO[C@@]1(NC(=O)CSc2cccc(C)c2)C(=O)N2C(C(=O)O)=C(CSc3nnnn3C)CSC21 (some centres unmarked) [WYBQ-4]
- hemolytic activity [1]: did not show hemolytic activity
- k2 ([2]; PBP2a acylation): 4.872 ± 0.14 s^–1 × 10^3
- kinact/KI ([2]; pH 7, read-out: k2/ks): 174 ± 8.45 M⁻¹ s⁻¹
- antibacterial activity [3]: weak
- cell viability [4]: still viable
- cell viability ([4]; A549, 0-128 μg/mL): did not affect the viability
- cell viability [5]: still viable
- cell viability ([5]; HEK-293T, 0-128 μg/mL): did not affect the viability
- cell viability [6]: still viable
- cell viability ([6]; HepG2, 0-128 μg/mL): did not affect the viability
- protection in systemic infection [7]: had a protective effect
- protection in systemic infection [8]: had a protective effect
- survival rate [9]: 100%
- MIC [10]: 4 µg/mL (≈ 7.32 µM)
